According to patent US7223793B2, “Phenolic acid derivatives and composition for preventing or treating blood lipid level-related diseases comprising the same” (Bionutrigen Co., Ltd., priority 2001, dated 2007):
Marks after values point to notes of the source that are not given here.

Key:
[1] = test system: New Zealand White rabbits; test: Fatty streak in the main artery of cholesterol-fed rabbits (Experimental Example 2); assay type: in vivo, rabbit; conditions: 8 weeks; for Proportion of stained region (fatty streak region) per unit area of the main artery: 1% cholesterol + RC4 diet, lovastatin 1 mg/kg or BN30028 0.05 wt %, Oil Red O, average ± standard deviation; for Proportion of the fatty streak region compared to the control group / Arterial endothelium, macrophage-lipid complex / atherosclerotic plaque (photographs): 1% cholesterol diet; for Arterial endothelium, macrophage-lipid complex / atherosclerotic plaque (photographs): FIGS. 1a-1c
Procedure: The rabbits raised in Step 1 were sacrificed and their chests were incised. The incision was performed downward to the diaphragm along the aortic arch and the fat surrounding the main artery was removed. The main artery was incised in the middle along the longitudinal axis from the second aortic intercostal artery anastomoses to the seventh aortic intercostal artery anastomoses and fixed with 10% neutral buffered formalin for 24 hours. Then, the incised main artery was pinned to a dish for staining of fatty streaks according to the method of Esper, E., et al. (J. Lab. Clin. Med., 121, 103-110 (1993)). The staining carried out by washing the artery three times with propylene glycol for 2 minutes respectively. The artery was stained for 30 minutes with a saturated solution of Oil Red O (ORO, Sigma Co.) dissolved in propylene glycol. Thereafter, the artery was washed twice with 85% propylene glycol for 3 minutes respectively to remove the remaining staining solution and, then once with physiological saline. The artery was photographed and the photograph was traced. The proportion (%) of stained region (fatty streak region) per unit area of the main artery was determined with an image analyzer (LEICA, Q-600, Germany). The significant differences between the test groups were tested by student t-test using Microsoft excel (version 7.0) program

ICR mice = test: Acute oral toxicity in mice (Experimental Example 5); assay type: in vivo
Procedure: The toxicity of orally administered BN30028 was tested as follows. Four-week-old specific pathogen-free ICR mice, 12 female mice and 12 male mice, were kept in a room under conditions of 22±3° C., 55±10% relative humidity and 12L/12D photoperiod. The mice was acclimated for one week before using in experiment. Fodder (Cheiljedang Co., mouse and rat fodder) and water were sterilized and freely fed to the mice.
BN30028 was dissolved in 0.5% Tween 80 to a concentration of […] and the solution was orally administered to the mice in an amount of 0.2 mL (1 g/kg), 0.4 mL (2 g/kg) or 0.8 mL (4 g/kg) per 20 g of mouse body weight. The solution was administered once for the 1 g/kg and 2 g/kg groups and twice for the 4 g/kg group. […] Also, on the 7th day, the mice were sacrificed and the internal organs were visually examined. From the day of the administration, the weight changes of the animals were recorded every other day to examine the effect of BN30028 on the reduction of body weight of animals.

SMILES	Proportion of stained region (fatty streak region) per unit area of the main artery [1]	Proportion of the fatty streak region compared to the control group [1]	Arterial endothelium, macrophage-lipid complex / atherosclerotic plaque (photographs) [1]	Body weight change (ICR mice; oral 1 g/kg, 2 g/kg and 4 g/kg, 7 days after the administration)	LD50 (ICR mice; orally administered, female and male mice)
COC(=O)C(Cc1ccccc1)NC(=O)CCc1ccc(O)c(O)c1 (centres unmarked) [BN30028, 2-[3-(3,4-dihydroxyphenyl)propionylamino]-3-phenyl propionic acid methyl ester]	16.1 ± 9.6^b %	significantly reduced	clean	normal weight increase without any weight loss	more than 4 g/kg body weight
CC[C@H](C)C(=O)O[C@H]1C[C@@H](C)C=C2C=C[C@H](C)[C@H](CC[C@@H]3C[C@@H](O)CC(=O)O3)[C@H]21 [Lovastatin, reference compound]	18.2 ± 10.4^b %	significantly reduced	clean	–	–
